System: naive T cells (CD4+CD62L+)
Test: Differentiation of naive CD4+ T cells stimulated with antigen and antigen presenting cells; cytokine profile after restimulation (FACS, secreted cytokines)
Format: cell-based, mouse
Details: antigen and APC culture of DO11.10 CD4+ T cells
Description: IL-2 is present in the culture after the first 3 days of activation. VitD3 is used at 4×10^-8 M (preferably in the range 4×10^-9 M to 4×10^-7 M) while DEX is used at 10^-8M (preferably in the range of 10^-9 M to 10^-7 M).
The cytokine profiles produced by the cells after restimulation are evaluated after 6 h by FACS analysis, while the quantities are accumulated by the respective cell population in 1 ml for 48 h.
DO.11.10 mice transgenic for an ovalbumin323-339 specific αβTCR were used as a source of antigen specific T cells. […] They were backcrossed on to a BALB/C background and (DO11.10×BALB/C)F1 mice were used as the source of T cells in all experiments. BALB/C (Taconics, Germantown, N.Y.) mice were used to provide splenic antigen presenting cells (APC).
Briefly, immunomagnetic depletion of CD8α^+, B220^+, and Mac-1^+ splenocytes was performed using goat anti-rat Ig coated beads (Biomag, PerSeptive Biosystems, Framingham, Mass.). The depleted population was then stained with anti-CD4-FITC and anti-L-selectin-PE and CD4^+ L-selectin^high cells were sorted using a FACStar^Plus cell sorter (Becton-Dickinson, Mountain View, Calif.). […] After 6 days, T cells were harvested, counted, and restimulated at 2.5×10^4 per well in 200 μl in 96 well plates for phenotype analysis by cytokine secretion. […]

For `C=C1/C(=C\C=C2/CCC[C@]3(C)[C@@H]([C@H](C)CCCC(C)(C)O)CC[C@@H]23)C[C@@H](O)C[C@@H]1O` [VitD3, 1,25(OH)-Dihydroxyvitamin D3], the “Resulting T cell population / cytokine profile (in words)” value was “drive the development of Th2 cells producing high levels of IL-4 and IL-5 and reduced IFN-γ”.
